What was measured:
mice = details: cited from earlier work
mouse (Harlan ND4) = experiment: mouse hot plate test (mouse jump); assay type: in vivo; details: subcutaneous injection, 15 minutes after administration, hot plate 55° C., dose producing analgesia in 50% of mice
Protocol: In this test, an upright acrylic cylinder comprising, as its base, a hot plate surface which is maintained at 55° C. is used. A mouse (Harlan ND4) is given, by subcutaneous injection, a predetermined amount of test compound dissolved or suspended in a suitable carrier, and, 15 minutes after administration of the test compound, the mouse is placed on the hot plate surface. The latency in seconds until the mouse jumps from the hot plate surface is measured. […] This must occur in a dose range which produces no motor incoordination or incapacitation. The following Table records ED50 results obtained from this test. By the term "ED50 " is meant that dose which produces analgesia in 50% of the mice tested. Analgesia is defined as a response latency in the presence of test compound that is equal to or greater than the control response latency plus two standard deviations. The percent analgesia data are converted to probits, and the ED50 is calculated by regression analysis of the dose-response data. Each dose response curve must have at least four points, and each point is determined using data from a minimum of ten treated mice and ten control mice.

enkephalin (δ) receptor = biological target: T1, enkephalin (δ) receptor (Mus musculus, UniProt P32300); experiment: mouse vas deferens assay; assay type: cell-based; details: depression of 50% of the electrically evoked contraction, field stimulation 0.15 Hz, 37° C.
T1 construct: from tissue; host or cells: mouse vas deferens (Harlan ND4 mice)
T1 sequence (P32300 whole entry): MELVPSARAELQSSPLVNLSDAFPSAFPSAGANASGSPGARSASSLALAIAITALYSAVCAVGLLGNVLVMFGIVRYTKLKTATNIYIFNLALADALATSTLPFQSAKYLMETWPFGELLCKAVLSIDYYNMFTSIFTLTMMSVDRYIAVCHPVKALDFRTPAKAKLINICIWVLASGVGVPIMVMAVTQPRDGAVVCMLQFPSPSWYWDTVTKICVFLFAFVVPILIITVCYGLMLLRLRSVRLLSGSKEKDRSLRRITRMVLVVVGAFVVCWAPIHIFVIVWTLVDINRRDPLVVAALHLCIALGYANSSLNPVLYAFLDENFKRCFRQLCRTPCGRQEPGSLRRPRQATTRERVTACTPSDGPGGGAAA
Protocol: In the mouse vas deferens test, single mouse vas deferens from mature mice (Harlan ND4, 30-40 g.) are suspended in 3 ml. of modified Kreb's solution aerated with 95% O2 -5% CO2 and maintained at 37° C. The twitch induced by field stimulation (0.15 Hz, 1 msec., 40V) is recorded on a polygraph via an isometric transducer. The test compound is added to the bath in 20 to 30 μl. aliquots. A dose-response curve is constructed by cumulative addition of appropriate amounts of the compound to the bath. Comparison of relative agonist potency at the δ receptor is made on the basis of IC50 values (concentration causing depression of 50% of the electrically evoked contraction).
The Table following also provides results for compounds of this invention when tested in the mouse vas deferens assay.

| Molecule | analgesic activity when administered parenterally (mice) | Mouse Jump ED50 (mouse (Harlan ND4)) [mg/kg] | IC50 (enkephalin (δ) receptor) [nM] |
| --- | --- | --- | --- |
| H-Tyr-Gly-Gly-Phe-Met-OH [methionine enkephalin] | practically devoid of any useful analgesic activity |  |  |
| CC(=O)C(Cc1ccccc1)NC(=O)CNC(=O)[C@@H](C)NC(=O)[C@@H](N)Cc1ccc(O)cc1 (stereo partly drawn) [Example 1, L-Tyrosyl-D-alanyl-N-(2-oxo-1-benzylpropyl)glycinamide] |  | 3.2 | 0.49 |
| CCN(C(=O)CNC(=O)[C@@H](C)NC(=O)[C@@H](N)Cc1ccc(O)cc1)[C@@H](Cc1ccccc1)C(C)=O [Example 2, L-Tyrosyl-D-alanyl-N-ethyl-N-(2-oxo-1-benzylpropyl)glycinamide] |  | 0.006 | 0.71 |
